Assay results as given in patent US20110112308A1 (NOVARTIS AG, priority 2006, published 2011).
Each block holds one compound with its values, some of them ahead of it.

Key:
[1] = Intrinsic dissolution rate, rotation disk method; assay type: physicochemical; conditions: for Intrinsic Dissolution Rate: 37° C., 200 r.p.m.
Method in brief: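 Pellets of drug substance dissolved by rotating disk at 200 r.p.m. into a 500 mL vessel at 37 °C. Dissolved drug monitored continuously by recirculating the medium through a UV cell.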

[2] = Stability of mixtures with excipients; assay type: physicochemical; conditions: for stability with all excipient mixtures tested, in words: after 2 weeks at 50° C./75% r.h.
Description: (§1) All samples were prepared/diluted to a concentration of 0.2 mg/mL in methanol prior to analysis by HPLC. A freshly prepared sample of each salt was used as the reference standard for external standard calibration analysis.

[3] = pH of saturated solution or 1% suspension in water; assay type: physicochemical; conditions: In pH = 6.8 buffer
[4] = Solubility, 24-hour equilibration at room temperature; assay type: physicochemical; conditions: for Solubility: approx. at 25° C.; for approximate solubility in water as %: estimated from mg/mL assuming solution density 1 g/mL
Description: Aqueous Solubility: A carefully weighted amount (20-50 mg) of sample is dissolved in 1 ml of solvent with 24-hour equilibration at room temperature. The solubility was determined either gravimetrically or by UV-VIS spectrometry. The pH of the clear solution was also measured. However, the difficulty of determining salt solubilities in water should be stressed, since upon dissolution dissociation to the free form is possible, which affects both the solubility and the pH. It's not unlikely that attempts to make solutions of a salt at a concentration well below the reported solubility of the salt to be unsuccessful (for a full discussion see: M. Pudipeddi, A. T. M. Serajuddin, D. J. W. Grant, and P. H. Stahl in “Handbook of Pharmaceutical Salts Properties Selection and Use” page 27 and references therein).

Solid-state stability = assay type: physicochemical; conditions: for Bulk stability (XRPD): 1 week
Description: as §1

[5] = pH of saturated solution or 1% suspension in water; assay type: physicochemical; conditions: room temperature
Description: pH Value: The pH at room temperature of a saturated solution or 1% suspension of the drug substance in water was recorded.

[6] = Solution stability (HPLC); assay type: physicochemical; conditions: for stability characteristics, in words: both in solution and in the solid state; for Unstressed (% Area): unstressed baseline of the stability study
Description: as §1

[7] = Equilibration in solvents and buffers: form conversion
[8] = Water, free base pellet disintegrated, not true intrinsic rate
[9] = Mixture 1: 50% PVP + 50% Crospovidone, 50° C./75% r.h., 2 weeks
[10] = Mixture 2: 50% Starch 1500 + 5% MCC 102, 50° C./75% r.h., 2 weeks
[11] = Mixture 3: 5% PVP + 5% Crospovidone + 10% Starch 1500 + 80% MCC 102, 50° C./75% r.h., 2 weeks
[12] = Mixture 4: 99% Lactose + 1% BHT/BHA, 50° C./75% r.h., 2 weeks
[13] = Mixture 5: 99% Mannitol + 1% BHT/BHA, 50° C./75% r.h., 2 weeks
[14] = Mixture 6: 50% Mannitol + 47% HPCLH21 + 1% BHT/BHA + 2% Magnesium Stearate, 50° C./75% r.h., 2 weeks
[15] = Mixture 7: 50% Cetyl Alcohol + 49% HPCLH21 + 1% Magnesium Stearate, 50° C./75% r.h., 2 weeks
[16] = Mixture 8: 100% PEG 3350, 50° C./75% r.h., 2 weeks
[17] = Bulk stability, 2 weeks, 50° C.
[18] = Bulk stability, 2 weeks, 50° C./20% water
[19] = Bulk stability, 2 weeks, 50° C./75% r.h.
[20] = Light study, 1200 kLux (300-800 nm)
[21] = 2 mg/mL in 100 mM lactate buffer, pH 3.5
[22] = 2 mg/mL in methanol, 1 week at 50° C.
[23] = 2 mg/mL in water, 1 week at 50° C.
[24] = 2 mg/mL, 100 mM lactate buffer pH 3.5, 1 week at 50° C.
[25] = 2 mg/mL, 100 mM lactate buffer pH 3.5, 1 week at 50° C., external standard
[26] = 2% in 0.5% HPMC 4000, 1 day at RT
[27] = 2% in 0.5% Klucel HF, 1 day at RT
[28] = 2% in 0.8% Tween 80, 1 day at RT
[29] = 5% solution, 1 day at RT (diluted 1:100 in pH 6.8 buffer)

intrinsic dissolution (rate), in words [1]: good
Intrinsic Dissolution Rate ([1]; HCl 0.1N): 1.00 mg min^−1 cm^−2
Intrinsic Dissolution Rate [1, 8]: 0.32 mg min^−1 cm^−2
% DP (total degradation products) [2, 9]: 0.5 % area
% DS (drug substance) [2, 9]: 99.5 % area
% DP (total degradation products) [2, 10]: 0.3 % area
% DS (drug substance) [2, 10]: 99.7 % area
% DP (total degradation products) [2, 11]: 0.3 % area
% DS (drug substance) [2, 11]: 99.7 % area
% DP (total degradation products) [2, 12]: 0.3 % area
% DS (drug substance) [2, 12]: 99.7 % area
% DP (total degradation products) [2, 13]: 0.3 % area
% DS (drug substance) [2, 13]: 99.7 % area
% DP (total degradation products) [2, 14]: 0.3 % area
% DS (drug substance) [2, 14]: 99.7 % area
% DP (total degradation products) [2, 15]: 0.3 % area
% DS (drug substance) [2, 15]: 99.7 % area
% DP (total degradation products) [2, 16]: 0.4 % area
% DS (drug substance) [2, 16]: 99.6 % area
% DP (total degradation products) ([2]; Standard, freshly prepared): 0.2 % area
% DS (drug substance) ([2]; Standard, freshly prepared): 99.8 % area
stability with all excipient mixtures tested, in words [2]: very good stability
pH of saturated solution [3]: 5.70
aqueous solubility [4]: 2600 µg/mL
solubility in methanol and ethanol, in words [4]: high
solubility in other common / remaining organic solvents, in words [4]: considerable
Solubility ([4]; 0.1N HCl): 700 µg/mL
Solubility ([4]; 2-Propanol): 1600 µg/mL
Solubility ([4]; Acetone): 3000 µg/mL
Solubility ([4]; Ethanol): 7200 µg/mL
Solubility ([4]; Ethyl acetate): 5600 µg/mL
Solubility ([4]; Methanol): 57000 µg/mL
Solubility ([4]; Propylene glycol): 32400 µg/mL
Solubility ([4]; Water): 2600 µg/mL
approximate solubility in water as % [4]: approximately 0.3%
Solubility ([4]; pH = 6.8 buffer): 1500 µg/mL
Bulk stability (XRPD) (Solid-state stability; 80° C.): no change
Bulk stability (XRPD) (Solid-state stability; 80° C./75% r.h.): no change
% DP (total degradation products) (Solid-state stability; [17]): 0.71 % area
assay (Solid-state stability; [17]): [102.2]
% DP (total degradation products) (Solid-state stability; [18]): 0.71 % area
assay (Solid-state stability; [18]): [101.1]
% DP (total degradation products) (Solid-state stability; [19]): 0.58 % area
assay (Solid-state stability; [19]): [100.0]
% DP (total degradation products) (Solid-state stability; [20]): 3.02 % area
CL (appearance) (Solid-state stability; [20]): D (D = strong discoloration)
assay (Solid-state stability; [20]): [96.72]
pH of saturated solution [5]: 5.54
pH of initial mixture [6, 21]: 3.51
% DP (total degradation products) [6, 22]: 0.83 % area
assay [6, 22]: [100.7]
pH of initial mixture ([6]; 2 mg/mL in water): 5.40
% DP (total degradation products) [6, 23]: 0.80 % area
CL (appearance) [6, 23]: A↓
assay [6, 23]: [97.26]
% DP (total degradation products) [6, 24]: 1.59 % area
CL (appearance) [6, 24]: A↓*
assay [6, 25]: [97.48]
% DP (total degradation products) ([6]; 2% in 0.5% CMC, 1 day at RT): 0.58 % area
CL (appearance) ([6]; 2% in 0.5% CMC, 1 day at RT): A↓↓
assay ([6]; 2% in 0.5% CMC, 1 day at RT): [77.42]
% DP (total degradation products) [6, 26]: 0.60 % area
assay [6, 26]: [94.63]
% DP (total degradation products) [6, 27]: 0.55 % area
assay [6, 27]: [96.78]
% DP (total degradation products) [6, 28]: 0.66 % area
assay [6, 28]: [96.83]
% DP (total degradation products) [6, 29]: 0.67 % area
CL (appearance) [6, 29]: A↓
assay [6, 29]: [97.92]
stability characteristics, in words [6]: very good stability
Unstressed (% Area) [6]: 99.48% Area
SMILES: Cc1[nH]c2ccccc2c1CCNCc1ccc(/C=C/C(=O)NO)cc1.O=C(O)/C=C\C(=O)O [Maleate, 1:1 maleate salt of N-hydroxy-3-[4-[[[2-(2-methyl-1H-indol-3-yl)ethyl]amino]methyl]phenyl]-2E-2-propenamide]

polymorphs upon equilibration ([7]; ambient temperature): No additional polymorphs are detected
conversion upon equilibration ([7]; phosphate buffer (pH=6.8)): converts to the free base
intrinsic dissolution (rate), in words [1]: good
Intrinsic Dissolution Rate ([1]; HCl 0.1N): 0.13 mg min^−1 cm^−2
Intrinsic Dissolution Rate [1, 8]: 0.68 mg min^−1 cm^−2
% DP (total degradation products) [2, 9]: 0.6 % area
% DS (drug substance) [2, 9]: 99.4 % area
% DP (total degradation products) [2, 10]: 0.5 % area
% DS (drug substance) [2, 10]: 99.5 % area
% DP (total degradation products) [2, 11]: 0.6 % area
% DS (drug substance) [2, 11]: 99.4 % area
% DP (total degradation products) [2, 12]: 0.5 % area
% DS (drug substance) [2, 12]: 99.5 % area
% DP (total degradation products) [2, 13]: 0.5 % area
% DS (drug substance) [2, 13]: 99.5 % area
% DP (total degradation products) [2, 14]: 0.5 % area
% DS (drug substance) [2, 14]: 99.5 % area
% DP (total degradation products) [2, 15]: 0.5 % area
% DS (drug substance) [2, 15]: 99.5 % area
% DP (total degradation products) [2, 16]: 0.5 % area
% DS (drug substance) [2, 16]: 99.5 % area
% DP (total degradation products) ([2]; Standard, freshly prepared): 0.3 % area
% DS (drug substance) ([2]; Standard, freshly prepared): 99.7 % area
stability with all excipient mixtures tested, in words [2]: very good stability
pH of saturated solution [3]: 5.67
aqueous solubility [4]: 2400 µg/mL
solubility in methanol, in words [4]: high
solubility in other common / remaining organic solvents, in words [4]: considerable
Solubility ([4]; 0.1N HCl): 200 µg/mL
Solubility ([4]; 2-Propanol): 800 µg/mL
Solubility ([4]; Acetone): 4500 µg/mL
Solubility ([4]; Ethanol): 2100 µg/mL
Solubility ([4]; Ethyl acetate): 6500 µg/mL
Solubility ([4]; Methanol): 16600 µg/mL
Solubility ([4]; Propylene glycol): 13200 µg/mL
Solubility ([4]; Water): 2400 µg/mL
approximate solubility in water as % [4]: approximately 0.3%
Solubility ([4]; pH = 6.8 buffer): 700 µg/mL
Bulk stability (XRPD) (Solid-state stability; 80° C.): no change
Bulk stability (XRPD) (Solid-state stability; 80° C./75% r.h.): no change
% DP (total degradation products) (Solid-state stability; [17]): 0.44 % area
assay (Solid-state stability; [17]): [99.38]
% DP (total degradation products) (Solid-state stability; [18]): 0.56 % area
assay (Solid-state stability; [18]): [100.6]
% DP (total degradation products) (Solid-state stability; [19]): 0.56 % area
assay (Solid-state stability; [19]): [99.04]
% DP (total degradation products) (Solid-state stability; [20]): 2.58 % area
CL (appearance) (Solid-state stability; [20]): C (C = medium discoloration)
assay (Solid-state stability; [20]): [98.15]
pH of saturated solution [5]: 5.65
pH of initial mixture [6, 21]: 3.52
% DP (total degradation products) [6, 22]: 0.38 % area
assay [6, 22]: [99.25]
pH of initial mixture ([6]; 2 mg/mL in water): 5.93
% DP (total degradation products) [6, 23]: 0.89 % area
CL (appearance) [6, 23]: A↓*
assay [6, 23]: [97.53]
% DP (total degradation products) [6, 24]: 1.30 % area
CL (appearance) [6, 24]: A↓*
assay [6, 25]: [96.61]
% DP (total degradation products) ([6]; 2% in 0.5% CMC, 1 day at RT): 0.46 % area
CL (appearance) ([6]; 2% in 0.5% CMC, 1 day at RT): A↓↓
assay ([6]; 2% in 0.5% CMC, 1 day at RT): [85.28]
% DP (total degradation products) [6, 26]: 0.43 % area
assay [6, 26]: [100.0]
% DP (total degradation products) [6, 27]: 0.43 % area
assay [6, 27]: [100.6]
% DP (total degradation products) [6, 28]: 0.43 % area
assay [6, 28]: [97.83]
% DP (total degradation products) [6, 29]: 1.40 % area
CL (appearance) [6, 29]: A↓
assay [6, 29]: [98.91
stability characteristics, in words [6]: very good stability
Unstressed (% Area) [6]: 99.63% Area
SMILES: Cc1[nH]c2ccccc2c1CCNCc1ccc(/C=C/C(=O)NO)cc1.Cl [HCl, hydrochloride salt of N-hydroxy-3-[4-[[[2-(2-methyl-1H-indol-3-yl)ethyl]amino]methyl]phenyl]-2E-2-propenamide]
